The values that follow come from patent US8927587B2, “Chemical compounds” (Pfizer Limited, priority 2012, dated 2015).

For this assay, the target named is T1, hNav1.8 (Homo sapiens, UniProt Q9Y5Y9).
T1 construct: host or cells: HEK cells, stably transfected
T1 sequence (Q9Y5Y9 whole entry): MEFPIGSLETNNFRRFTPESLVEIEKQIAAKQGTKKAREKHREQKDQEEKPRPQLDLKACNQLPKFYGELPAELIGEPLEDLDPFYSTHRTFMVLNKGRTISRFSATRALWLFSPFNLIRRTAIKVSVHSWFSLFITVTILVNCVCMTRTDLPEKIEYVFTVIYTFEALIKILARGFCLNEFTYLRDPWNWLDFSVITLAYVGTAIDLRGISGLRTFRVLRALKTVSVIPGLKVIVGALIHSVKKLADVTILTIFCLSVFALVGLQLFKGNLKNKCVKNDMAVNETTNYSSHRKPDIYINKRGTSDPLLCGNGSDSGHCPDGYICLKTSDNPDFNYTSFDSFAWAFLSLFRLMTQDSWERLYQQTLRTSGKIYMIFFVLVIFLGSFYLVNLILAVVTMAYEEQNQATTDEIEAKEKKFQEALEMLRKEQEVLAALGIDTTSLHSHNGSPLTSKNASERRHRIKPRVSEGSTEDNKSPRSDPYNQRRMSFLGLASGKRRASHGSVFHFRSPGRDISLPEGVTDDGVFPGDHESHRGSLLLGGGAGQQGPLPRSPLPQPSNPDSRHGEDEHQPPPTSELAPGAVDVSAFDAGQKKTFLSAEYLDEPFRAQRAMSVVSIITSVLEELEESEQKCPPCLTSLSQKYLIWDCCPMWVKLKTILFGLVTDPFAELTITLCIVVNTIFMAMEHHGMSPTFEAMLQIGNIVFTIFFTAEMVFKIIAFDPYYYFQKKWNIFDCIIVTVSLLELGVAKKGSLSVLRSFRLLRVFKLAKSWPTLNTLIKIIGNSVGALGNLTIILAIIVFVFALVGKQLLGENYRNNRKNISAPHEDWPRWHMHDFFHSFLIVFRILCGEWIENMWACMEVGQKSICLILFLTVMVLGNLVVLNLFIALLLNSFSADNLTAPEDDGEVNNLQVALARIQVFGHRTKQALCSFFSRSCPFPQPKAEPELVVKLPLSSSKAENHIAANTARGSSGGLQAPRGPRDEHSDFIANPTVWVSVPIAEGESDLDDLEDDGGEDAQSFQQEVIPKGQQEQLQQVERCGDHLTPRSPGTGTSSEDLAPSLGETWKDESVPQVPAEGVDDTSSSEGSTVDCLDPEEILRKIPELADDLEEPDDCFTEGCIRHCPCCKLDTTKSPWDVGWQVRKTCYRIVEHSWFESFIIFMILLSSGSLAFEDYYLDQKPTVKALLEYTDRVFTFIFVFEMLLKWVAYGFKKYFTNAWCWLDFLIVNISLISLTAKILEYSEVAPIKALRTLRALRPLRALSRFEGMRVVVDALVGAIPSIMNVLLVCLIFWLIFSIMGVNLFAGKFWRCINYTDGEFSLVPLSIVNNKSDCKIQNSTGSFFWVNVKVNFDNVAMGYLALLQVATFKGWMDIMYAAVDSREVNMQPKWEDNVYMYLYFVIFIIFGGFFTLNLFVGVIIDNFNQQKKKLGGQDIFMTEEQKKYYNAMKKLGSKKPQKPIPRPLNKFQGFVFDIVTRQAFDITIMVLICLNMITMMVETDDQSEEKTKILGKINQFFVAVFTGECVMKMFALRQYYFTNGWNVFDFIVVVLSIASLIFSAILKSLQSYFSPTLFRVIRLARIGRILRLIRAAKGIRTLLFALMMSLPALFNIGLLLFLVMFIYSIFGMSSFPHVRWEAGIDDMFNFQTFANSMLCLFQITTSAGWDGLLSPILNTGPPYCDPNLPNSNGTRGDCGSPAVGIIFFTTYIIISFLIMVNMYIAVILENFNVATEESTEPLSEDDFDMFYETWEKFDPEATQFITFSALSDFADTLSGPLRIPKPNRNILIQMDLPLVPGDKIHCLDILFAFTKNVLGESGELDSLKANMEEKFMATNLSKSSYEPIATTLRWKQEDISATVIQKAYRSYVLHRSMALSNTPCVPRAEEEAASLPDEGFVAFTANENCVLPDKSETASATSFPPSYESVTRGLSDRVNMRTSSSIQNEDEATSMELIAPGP
The assay can be described thus: hNav1.8 whole-cell patch-clamp electrophysiology (conventional or PatchXpress 7000) in stably transfected HEK cells. Type of assay: cell-based. The note with it: estimated IC50 calculated from single point % inhibition; HEK cells expressing hNav1.8; 8 sec prepulse to V1/2, 20 msec step to 0 mV; average of replicates; read-out: Nav1.8 EIC50. The procedure, abridged: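 Whole-cell voltage clamp at 22-24 °C in HEK cells stably expressing hNav1.8, manually or on PatchXpress. Current evoked by 20 msec step to 0 mV after 8 s prepulse to each cell's inactivation V1/2; single-concentration % inhibition converted to estimated IC50, using only 20-80% inhibition values, averaged over replicates.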
As for `CC(C)(C)Cc1ccc2[nH]c(C3(N)Cc4ccccc4C3)nc2c1` [Example 116, 2-[6-(2,2-Dimethylpropyl)-1H-benzimidazol-2-yl]-2,3-dihydro-1H-inden-2-amine], the IC50 is 222 nM. `N#Cc1ccc(-c2ccc3[nH]c([C@@H](N)CC(N)=O)nc3c2)cc1F` [Example 117, (3S)-3-Amino-3-[5-(4-cyano-3-fluorophenyl)-1H-benzimidazol-2-yl]propanamide]: the IC50 was 2490 nM. Next, `CC(C)(C)Cc1ccc2[nH]c([C@@H](N)CC(N)=O)nc2c1` [Example 118, (3S)-3-Amino-3-[5-(2,2-dimethylpropyl)-1H-benzimidazol-2-yl]propanamide]: 348 nM; `N#Cc1ccc(-c2ccc3[nH]c([C@@H](N)CC(N)=O)nc3c2)c(Cl)c1` [Example 119, (3S)-3-Amino-3-[5-(2-chloro-4-cyanophenyl)-1H-benzimidazol-2-yl]propanamide]: 671 nM. Regarding `CO[C@H](C)[C@H](N)c1nc2c(Cl)c(-c3ccc(C#N)c(F)c3)ccc2[nH]1` [Example 120, 4-{2-[(1R,2R)-1-Amino-2-methoxypropyl]-4-chloro-1H-benzimidazol-5-yl}-2-fluorobenzonitrile], the IC50 is 88.5 nM.

Turning to `C[C@@H](O)[C@H](N)c1nc2c(Cl)c(-c3ccc(C#N)c(F)c3)ccc2[nH]1` [Example 121, 4-{2-[(1R,2R)-1-Amino-2-hydroxypropyl]-4-chloro-1H-benzimidazol-5-yl}-2-fluorobenzonitrile], the IC50 is 3050 nM. As for `C[C@@H](O)[C@H](N)c1nc2cc(-c3ccc(C#N)cc3Cl)ccc2[nH]1` [Example 122, 4-{2-[(1R,2R)-1-Amino-2-hydroxypropyl]-1H-benzimidazol-6-yl}-3-chlorobenzonitrile], the IC50 is 326 nM.

`CO[C@H](C)[C@H](N)c1nc2cc(C(C)C)ccc2[nH]1` [Example 123, (1R,2R)-2-Methoxy-1-[5-(propan-2-yl)-1H-benzimidazol-2-yl]propan-1-amine]: the IC50 is 1080 nM.

Take `CC(C)c1ccc2[nH]c([C@@H](N)[C@H](O)C(C)C)nc2c1` [Example 125, (1R,2R)-1-Amino-3-methyl-1-[5-(propan-2-yl)-1H-benzimidazol-2-yl]butan-2-ol]: the IC50 is 2220 nM. For the molecule `CC[C@@H](O)[C@H](N)c1nc2cc(C(C)C)ccc2[nH]1` [Example 126, (1R,2R)-1-Amino-1-[5-(propan-2-yl)-1H-benzimidazol-2-yl]butan-2-ol], the IC50 was 967 nM.

As to `CO[C@@H](C)[C@H](N)c1nc2cc(C(C)C)ccc2[nH]1` [Example 127, (1R,2S)-2-Methoxy-1-[5-(propan-2-yl)-1H-benzimidazol-2-yl]propan-1-amine], the IC50 is 2770 nM. For the molecule `CO[C@@H](C)[C@H](N)c1nc2cc(C(C)(C)C)ccc2[nH]1` [Example 128, (1R,2S)-1-(5-tert-Butyl-1H-benzimidazol-2-yl)-2-methoxypropan-1-amine], the IC50 is 368 nM. Consider `CC(C)(C)c1ccc2[nH]c([C@@H]3CCN3)nc2c1` [Example 129, 2-[(2S)-Azetidin-2-yl]-5-tert-butyl-1H-benzimidazole], for which the IC50 is 510 nM.

As to `CC(C)(C)c1ccc2[nH]c([C@H]3CCN3)nc2c1` [Example 130, 2-[(2R)-Azetidin-2-yl]-5-tert-butyl-1H-benzimidazole], the IC50 is 1340 nM. Next, `CC(C)(C)c1ccc2[nH]c([C@@H]3C[C@@H](F)CN3)nc2c1` [Example 131, 5-tert-Butyl-2-[(2S,4R)-4-fluoropyrrolidin-2-yl]-1H-benzimidazole]: 394 nM.

For the molecule `CC(C)(C)c1ccc2[nH]c([C@@H]3C[C@H](F)CN3)nc2c1` [Example 132, 5-tert-Butyl-2-[(2S,4S)-4-fluoropyrrolidin-2-yl]-1H-benzimidazole], the IC50 is 191 nM. As to `CC(C)[C@@H](O)[C@H](N)c1nc2cc(C(C)(C)C)ccc2[nH]1` [Example 133, (1R,2R)-1-Amino-1-(5-tert-butyl-1H-benzimidazol-2-yl)-3-methylbutan-2-ol], the IC50 was 228 nM. As to `CC(C)(C)c1ccc2[nH]c([C@H](N)CCO)nc2c1` [Example 134, (3R)-3-Amino-3-(5-tert-butyl-1H-benzimidazol-2-yl)propan-1-ol], the IC50 is 355 nM. With `CC(C)(C)c1ccc2[nH]c([C@H](N)CCCO)nc2c1` [Example 135, (4R)-4-Amino-4-(5-tert-butyl-1H-benzimidazol-2-yl)butan-1-ol], the IC50 is 1000 nM. As to `CC(C)(C)c1ccc2[nH]c([C@H]3NCC[C@H]3O)nc2c1` [Example 136, (2R,3R)-2-(5-tert-Butyl-1H-benzimidazol-2-yl)pyrrolidin-3-ol], the IC50 is 508 nM. In the case of `C[C@@H](O)[C@@H](N)c1nc2cc(-c3ccc(C#N)cc3)ccc2[nH]1` [Example 137, 4-{2-[(1S,2R)-1-Amino-2-hydroxypropyl]-1H-benzimidazol-5-yl}benzonitrile], the IC50 is 915 nM. Take `C[C@H](O)[C@H](N)c1nc2cc(-c3ccc(C#N)cc3)ccc2[nH]1` [Example 138, 4-{2-[(1R,2S)-1-Amino-2-hydroxypropyl]-1H-benzimidazol-5-yl}benzonitrile]: the IC50 was 486 nM. With `CC[C@@H](O)[C@H](N)c1nc2cc(C(C)(C)C)ccc2[nH]1` [Example 139, (1R,2R)-1-Amino-1-(5-tert-butyl-1H-benzimidazol-2-yl)butan-2-ol], the IC50 was 43.5 nM.

For `CC(C)(C)c1ccc2[nH]c([C@@H](N)CCCO)nc2c1` [Example 140, (4S)-4-Amino-4(5-tert-butyl-1H-benzimidazol-2-yl)butan-1-ol], the IC50 was 223 nM. In the case of `CC(C)(C)c1ccc2[nH]c([C@@H](N)C(C)(C)C(N)=O)nc2c1` [Example 141, (3S)-3-Amino-3-(5-tert-butyl-1H-benzimidazol-2-yl)-2,2-dimethylpropanamide] it was 797 nM. In the case of `COC(C)(C)C(N)c1nc2cc(-c3ccc(C#N)cc3)ccc2[nH]1` (centres unmarked) [Example 142, 4-[2-(1-Amino-2-methoxy-2-methylpropyl)-1H-benzimidazol-5-yl]benzonitrile], the IC50 was 1840 nM.

On to `CC(C)(C)c1ccc2[nH]c([C@@H](N)COC(N)=O)nc2c1` [Example 143, (R)-2-Amino-2-(5-(tert-butyl)-1H-benzo[d]imidazol-2-yl)ethyl carbamate], for which the IC50 was 85.2 nM.

As for `CC[C@@H](C(N)=O)[C@H](N)c1nc2cc(C(C)(C)C)ccc2[nH]1` [Example 144, (R)-2-((S)-Amino-(6-(tert-butyl)-1H-benzo[d]imidazol-2-yl)methyl)butanamide], the IC50 is 41.3 nM. Turning to `CO[C@H](C)[C@H](N)c1nc2cc(C3CCCC3)ccc2[nH]1` [Example 145, (1R,2R)-1-(5-Cyclopentyl-1H-benzo[d]imidazol-2-yl)-2-methoxypropan-1-amine], the IC50 was 284 nM. On to `CCC[C@H](N)c1nc2cc(-c3ccc(C#N)c(F)c3)ccc2[nH]1` [Example 146, 4-{2-[(1S)-1-Aminobutyl]-1H-benzimidazol-5-yl}-2-fluorobenzonitrile], for which the IC50 is 27.3 nM.

`CCC[C@H](N)c1nc2cc(-c3ccc(C#N)cc3)ccc2[nH]1` [Example 147, 4-{2-[(1S)-1-Aminobutyl]-1H-benzimidazol-5-yl}benzonitrile]: the IC50 was 110 nM. Regarding `CC(C)c1ccc2[nH]c([C@H](N)[C@@H](C)O)nc2c1` [Example 148, (1S,2R)-1-Amino-1-[5-(propan-2-yl)-1H-benzimidazol-2-yl]propan-2-ol], the IC50 was 1000 nM. For `C[C@@H](C(=O)N(C)C)[C@H](N)c1nc2cc(C(C)(C)C)ccc2[nH]1` [Example 149, (2R,3S)-3-Amino-3-(5-tert-butyl-1H-benzimidazol-2-yl)-N,N,2-trimethylpropanamide], the IC50 was 303 nM. For `CC(N)(CO)c1nc2cc(-c3ccc(C#N)c(F)c3)ccc2[nH]1` (centres unmarked) [Example 150, 4-(2-(2-Amino-1-hydroxypropan-2-yl)-1H-benzo[d]imidazol-5-yl)-2-fluorobenzonitrile], the IC50 was 134 nM. Regarding `C[C@H](OC(N)=O)[C@H](N)c1nc2cc(C34CC5CC(CC(C5)C3)C4)ccc2[nH]1` [Example 151, (1R,2S)-1-(5-((3R,5R,7R)-Adamantan-1-yl)-1H-benzo[d]imidazol-2-yl)-1-aminopropan-2-yl carbamate], the IC50 was 45.2 nM.

As for `NC(=O)C[C@H](N)c1nc2cc(C34CC5CC(CC(C5)C3)C4)ccc2[nH]1` [Example 152, (3S)-3-Amino-3-[5-(tricyclo[3.3.1.1^3,7]dec-1-yl)-1H-benzimidazol-2-yl]propanamide], the IC50 was 101 nM. Regarding `COC[C@H](N)c1nc2cc(-c3ccc(C#N)cc3)ccc2[nH]1` [Example 153, 4-{2-[(1R)-1-Amino-2-methoxyethyl]-1H-benzimidazol-5-yl}benzonitrile], the IC50 is 96.3 nM. For `C[C@@H](O)[C@H](N)c1cn2cc(-c3ccc(C#N)cc3)ccc2n1` [Example 154, 4-{2-[(1R,2R)-1-Amino-2-hydroxypropyl]imidazo[1,2-a]pyridin-6-yl}benzonitrile], the IC50 is 108 nM. For `CC(C)(C)c1ccc2nc([C@@H](N)CO)cn2c1` [Example 155, (2R)-2-Amino-2-(6-tert-butylimidazo[1,2-a]pyridin-2-yl)ethanol], the IC50 was 208 nM.

As for `C[C@@H](C(N)=O)[C@H](N)c1cn2cc(-c3ccc(C#N)cc3)ccc2n1` [Example 156, (2R,3S)-3-Amino-3-[6-(4-cyanophenyl)imidazo[1,2-a]pyridin-2-yl]-2-methylpropanamide], the IC50 is 54.6 nM. In the case of `C[C@@H](C(N)=O)[C@H](N)c1cn2cc(C(C)(C)C)ccc2n1` [Example 157, (2R,3S)-3-Amino-3-(6-tert-butylimidazo[1,2-a]pyridin-2-yl)-2-methylpropanamide] it was 44.5 nM.
